Test results reported in patent publication US20150225762A1, “SAME-DAY BLOOD CULTURE WITH DIGITAL MICROSCOPY” (ACCELERATE DIAGNOSTICS, INC., priority 2012, published 2015).

Experiments:
Kpne 13882 [1] = assay: Plate count of live bacteria after killing treatment
Ecol 35218 [2] = assay: FISH detection of live and killed bacteria with or without protease digestion; assay type: cell-based, E. coli
Paer 27853 [3] = assay: as above; assay type: cell-based, P. aeruginosa
Ecol 35218 [4] = assay: Plate count of live bacteria after killing treatment; assay type: cell-based, E. coli
Saur 12600 [5] = assay: FISH detection of live and killed bacteria with or without protease digestion; assay type: cell-based, S. aureus
Saur 12600 [6] = assay: Plate count of live bacteria after killing treatment; assay type: cell-based, S. aureus
Paer 27853 [7] = assay: as above; assay type: cell-based, P. aeruginosa
Kpne 13882 [8] = assay: FISH detection of live and killed bacteria with or without protease digestion; assay type: cell-based, K. pneumoniae
[9] = 0 hr, after gentamycin 100 micrograms per mL 1 hour or 80% ethanol
[10] = gentamycin 1 hour or 80% ethanol
[11] = 1 hour, with protease (0.2 mg/mL Pronase)
[12] = 1 hour, with protease (0.2 mg/mL Pronase), cells live or pre-killed as labelled
[13] = 4 hour, with protease (0.2 mg/mL Pronase)
[14] = 4 hour, with protease (0.2 mg/mL Pronase), cells live or pre-killed as labelled

CCO [Ethanol, ethanol]
Conc of live bacteria by plating (Kpne 13882 [1]; [9]): <10 cfu/mL
Killing by plating, in words (Kpne 13882 [1]; [10]): no viable cells
FISH Conc (Ecol 35218 [2]; 1 hour, no protease): 4.3 × 10^4 cells/mL
Positive Detection? (Ecol 35218 [2]; 1 hour, no protease): Yes (A detection threshold of 1×10^4 cells per mL was used as the threshold for a positive call in the FISH assay)
Positive Detection? (Ecol 35218 [2]; [11]): No (A detection threshold of 1×10^4 cells per mL was used as the threshold for a positive call in the FISH assay)
FISH Conc (Ecol 35218 [2]; [12]): 3.3 × 10^3 cells/mL
FISH Conc (Ecol 35218 [2]; 4 hour, no protease): 3.7 × 10^4 cells/mL
Positive Detection? (Ecol 35218 [2]; 4 hour, no protease): Yes (A detection threshold of 1×10^4 cells per mL was used as the threshold for a positive call in the FISH assay)
Positive Detection? (Ecol 35218 [2]; [13]): No (A detection threshold of 1×10^4 cells per mL was used as the threshold for a positive call in the FISH assay)
FISH Conc (Ecol 35218 [2]; [14]): 6.7 × 10^3 cells/mL
FISH Conc (Paer 27853 [3]; 1 hour, no protease): 3.0 × 10^5 cells/mL
Positive Detection? (Paer 27853 [3]; 1 hour, no protease): Yes (A detection threshold of 1×10^4 cells per mL was used as the threshold for a positive call in the FISH assay)
Positive Detection? (Paer 27853 [3]; [11]): No (A detection threshold of 1×10^4 cells per mL was used as the threshold for a positive call in the FISH assay)
FISH Conc (Paer 27853 [3]; [12]): 6.7 × 10^3 cells/mL
FISH Conc (Paer 27853 [3]; 4 hour, no protease): 1.3 × 10^5 cells/mL
Positive Detection? (Paer 27853 [3]; 4 hour, no protease): Yes (A detection threshold of 1×10^4 cells per mL was used as the threshold for a positive call in the FISH assay)
Positive Detection? (Paer 27853 [3]; [13]): No (A detection threshold of 1×10^4 cells per mL was used as the threshold for a positive call in the FISH assay)
FISH Conc (Paer 27853 [3]; [14]): <1 × 10^3 cells/mL
Conc of live bacteria by plating (Ecol 35218 [4]; [9]): <10 cfu/mL
Killing by plating, in words (Ecol 35218 [4]; [10]): no viable cells
FISH Conc (Saur 12600 [5]; 1 hour, no protease): 3.4 × 10^5 cells/mL
Positive Detection? (Saur 12600 [5]; 1 hour, no protease): Yes (A detection threshold of 1×10^4 cells per mL was used as the threshold for a positive call in the FISH assay)
Positive Detection? (Saur 12600 [5]; [11]): Yes (A detection threshold of 1×10^4 cells per mL was used as the threshold for a positive call in the FISH assay)
FISH Conc (Saur 12600 [5]; [12]): 2.5 × 10^5 cells/mL
FISH Conc (Saur 12600 [5]; 4 hour, no protease): 1.9 × 10^5 cells/mL
Positive Detection? (Saur 12600 [5]; 4 hour, no protease): Yes (A detection threshold of 1×10^4 cells per mL was used as the threshold for a positive call in the FISH assay)
Positive Detection? (Saur 12600 [5]; [13]): Yes (A detection threshold of 1×10^4 cells per mL was used as the threshold for a positive call in the FISH assay)
FISH Conc (Saur 12600 [5]; [14]): 1.2 × 10^5 cells/mL
Conc of live bacteria by plating (Saur 12600 [6]; [9]): <10 cfu/mL
Killing by plating, in words (Saur 12600 [6]; [10]): no viable cells
Conc of live bacteria by plating (Paer 27853 [7]; [9]): <10 cfu/mL
Killing by plating, in words (Paer 27853 [7]; [10]): no viable cells
FISH Conc (Kpne 13882 [8]; 1 hour, no protease): 4.9 × 10^5 cells/mL
Positive Detection? (Kpne 13882 [8]; 1 hour, no protease): Yes (A detection threshold of 1×10^4 cells per mL was used as the threshold for a positive call in the FISH assay)
Positive Detection? (Kpne 13882 [8]; [11]): Yes (A detection threshold of 1×10^4 cells per mL was used as the threshold for a positive call in the FISH assay)
FISH Conc (Kpne 13882 [8]; [12]): 6.8 × 10^5 cells/mL
FISH Conc (Kpne 13882 [8]; 4 hour, no protease): 4.1 × 10^5 cells/mL
Positive Detection? (Kpne 13882 [8]; 4 hour, no protease): Yes (A detection threshold of 1×10^4 cells per mL was used as the threshold for a positive call in the FISH assay)
Positive Detection? (Kpne 13882 [8]; [13]): Yes (A detection threshold of 1×10^4 cells per mL was used as the threshold for a positive call in the FISH assay)
FISH Conc (Kpne 13882 [8]; [14]): 2.8 × 10^5 cells/mL
